Source: patent US20220081434A1, “DIHYDROISOQUINOLINE COMPOUND” (SUZHOU ARK BIOPHARMACEUTICAL CO., LTD., priority 2019, published 2022)
Like-named read-outs stand apart in the source and are kept apart here.

Assays:
[1] = tested on: hepatitis B surface antigen (HBsAg); test: Determination of hepatitis B surface antigen (HBsAg) in HepG2.2.15 cell supernatant; assay type: cell-based, hepatitis B virus (HepG2.2.15 cells); conditions: Hepatitis B virus, HepG2.2.15, 96 h, read-out: HBsAg inhibitory activity IC50
Method: (§1) The full genome of HBV was inserted into an […] cell, which could therefore express HBV continuously (Sells et al, Proc Natl Acad Sci USA. 1987 February; 84 (4):1005-9). The culture condition was DMEM medium containing 10% serum and […] G418. Cells were placed in an incubator containing 5% CO2 and cultured at 37° C.
HepG2.2.15 cells were seeded into a 96-well culture plate at a density of 3×10^4 cells/well. On the next day, the drug dissolved in DMSO was subjected to a 5-fold dilution and then added to the cells. 0.5% DMSO was added separately as control. The supernatant was collected after 4 days of drug action, and the content of hepatitis B surface antigen was determined.
The determination of hepatitis B surface antigen was carried out by using a kit for quantitative determination of hepatitis B virus surface antigen (chemiluminescence method). The specific operations were as follows. 50 μL cell culture supernatant was taken and transferred to the assay plate. 50 μL of enzyme-linked reagent was added thereto and the assay plate was sealed. Incubation was carried out at room temperature for 1 hour. Afterwards, the assay plate was washed six times with PBS, and finally, the residual liquid was removed by shaking the plate. 25 μL of substrates A and B were added respectively, and the determination was conducted by using a microplate reader (Tecan Infinite® F200) after ten minutes of reaction. IC50 was calculated after fitting the dose-response curve.

[2] = tested on: HBV DNA; test: Determination of HBV DNA in HepG2.2.15 cell supernatant by qPCR; assay type: cell-based, hepatitis B virus (HepG2.2.15 cells); conditions: Hepatitis B virus, 168 h, HepG2.2.15 cells, supernatant after a total of 7 days of drug action, read-out: Inhibitory activity against HBV DNA IC50
Method: as §1
HepG2.2.15 cells were seeded into a 96-well culture plate at a density of 4×10^4 cells/well. After 4 hours, the drug dissolved in DMSO was subjected to a 4-fold dilution and then added to cells. 0.5% DMSO was added separately as control. On the 4th day of drug action, the original supernatant was removed and then the drug was added thereto again. The supernatant was collected after a total of 7 days of drug action and treated with lysis buffer. The determination of hepatitis B DNA was carried out by real-time fluorescence-based quantitative polymerase chain reaction (qPCR). After the completion of the qPCR, data were exported from the instrument and analyzed, and IC50 indicating antiviral activity was calculated after fitting the dose-response curve.

[3] = Pharmacokinetic experiments in ICR mice (plasma); assay type: in vivo; conditions: for AUC(0-t): read-out: AUC0-12
Method: Multiple compounds in the Examples of the present disclosure were administered to ICR mice to conduct pharmacokinetic experiments. A single intravenous injection (with a dose of 2 mg/kg) and a single oral administration (with a dose of 10 mg/kg) were administered respectively. Blood was respectively collected prior to administration and 5 minutes, 15 minutes, 30 minutes, 1 hour, 2 hours, 4 hours, 8 hours, 12 hours and 24 hours after administration, and the concentration of the test compound in plasma was determined. Plasma pharmacokinetic data of the control compound (obtained from Example 28 in patent WO2018130152 A1) and the compounds of Examples 10 and 19 in the present disclosure in mice were as shown in the following Table 5 to Table 7.

[4] = mouse, single intravenous injection 2 mg/kg, plasma
[5] = mouse, single oral administration 10 mg/kg, plasma

COc1cc2c(cc1-c1cnc(N3CCC(C)(O)CC3)s1)CC(C(C)(C)C)n1cc(C(=O)O)c(=O)cc1-2 (centres unmarked) [Example 7, 6-tert-butyl-9-[2-(4-hydroxy-4-methylpiperidin-1-yl)thiazol-5-yl]-10-methoxy-2-oxo-6,7-dihydro-2H-pyrido[2,1-a]isoquinoline-3-carboxylic Acid]
IC50 [1]: 0.08 nM
IC50 [2]: 0.15 nM

COc1cc2c(cc1-c1cnc(N3CC(F)(F)C3)s1)CC(C(C)(C)C)n1cc(C(=O)O)c(=O)cc1-2 (centres unmarked) [Example 4, 6-tert-butyl-9-[2-(3,3-difluoroazetidin-1-yl)thiazol-5-yl]-10-methoxy-2-oxo-6,7-dihydro-2H-pyrido[2,1-a]isoquinoline-3-carboxylic Acid]
IC50 [1]: 0.045 nM
IC50 [2]: 0.26 nM

CCOc1ncc(-c2cc3c(cc2OC)-c2cc(=O)c(C(=O)O)cn2C(C(C)(C)C)C3)s1 (centres unmarked) [Example 13, 6-tert-butyl-9-[2-(ethoxy)thiazol-5-yl]-10-methoxy-2-oxo-6,7-dihydro-2H-pyrido[2,1-a]isoquinoline-3-carboxylic Acid]
IC50 [1]: 0.2 nM
IC50 [2]: 0.31 nM

COc1cc2c(cc1-c1cnc(N3CC(OC)C3)s1)CC(C(C)(C)C)n1cc(C(=O)O)c(=O)cc1-2 (centres unmarked) [Example 9, 6-tert-butyl-10-methoxy-9-[2-(3-methoxyazetidin-1-yl)thiazol-5-yl]-2-oxo-6,7-dihydro-2H-pyrido[2,1-a]isoquinoline-3-carboxylic Acid]
IC50 [1]: 0.03 nM
IC50 [2]: 0.1 nM

COc1cc2c(cc1-c1cnc(N3CC(F)C3)s1)CC(C(C)(C)C)n1cc(C(=O)O)c(=O)cc1-2 (centres unmarked) [Example 11, 6-tert-butyl-9-[2-(3-fluoroazetidin-1-yl)thiazol-5-yl]-10-methoxy-2-oxo-6,7-dihydro-2H-pyrido[2,1-a]isoquinoline-3-carboxylic Acid]
IC50 [1]: 0.09 nM
IC50 [2]: 0.13 nM

COCc1ncc(-c2cc3c(cc2OC)-c2cc(=O)c(C(=O)O)cn2C(C(C)(C)C)C3)s1 (centres unmarked) [Example 10, 6-tert-butyl-10-methoxy-9-[2-(methoxymethyl)thiazol-5-yl]-2-oxo-6,7-dihydro-2H-pyrido[2,1-a]isoquinoline-3-carboxylic Acid]
IC50 [1]: 0.2 nM
IC50 [2]: 0.13 nM
bioavailability ([3]; mouse, plasma, oral 10 mg/kg vs intravenous 2 mg/kg, read-out: F (bioavailability)): 33.9%
AUC(0-inf) [3, 4]: 804 ng·h/mL
Cmax [3, 4]: 423 ng/mL
Tmax [3, 4]: 0.08 h
clearance [3, 4]: 41.4 mL/min/kg
half-life [3, 4]: 1.9 h
AUC(0-t) [3, 4]: 796 ng·h/mL
Vd ([3]; mouse, single intravenous injection 2 mg/kg, plasma, read-out: Vss): 5.42 L/kg
AUC(0-inf) [3, 5]: 1400 ng·h/mL
Cmax [3, 5]: 458 ng/mL
Tmax [3, 5]: 0.5 h
half-life [3, 5]: 2.6 h
AUC(0-t) [3, 5]: 1350 ng·h/mL
plasma exposure compared with the control compound ([3]; same dose, after intravenous injection and oral administration): significantly higher
